The source of these data is US12557812B2, “Method and composition for water treatment” (BROMINE COMPOUNDS LTD., priority 2019, dated 2026).

“Also recorded” adds a separate entry of the source. Like-named read-outs stand apart in the source and are kept apart here.

Data set [1] has as its system Pseudomonas aeruginosa biofilm. Kind of data set: Sequential application of CDA then biocide on 3-day-old biofilm grown in CDC biofilm reactor (single tube method). The settings on record: for effect on biofilm of biocides applied alone, compared with each other: Example 8, 5 ppm, 1 h (FIG. 17). The data set is classed as cell-based.
The subject of data set [2] is biofilm formed by mixed bacteria (Staphylococcus aureus 6538, Bacillus mycoides 6462 and Pseudomonas aeruginosa 700888). Briefly: Sequential application of CDA then biocide on mixed-bacteria biofilm grown in CDC biofilm reactor. It is filed as cell-based.
Data set [3] concerns P. aeruginosa strain PA14 biofilm. Briefly: Simultaneous application of CDA and biocide on 3-day biofilm in 24-well plates. It is filed as cell-based, Pseudomonas aeruginosa. The settings on record: for Log reduction vs. control: biocide alone / Enhancement / Log reduction vs. control: combination of the 310 nm CDA and biocide: biocide 10 ppm; for Enhancement: simultaneous 310 nm CDA; for Log reduction vs. control: combination of the 310 nm CDA and biocide: simultaneous application. The method, then: The effect of bromine-containing biocide in combination with CDA on pre-grown biofilms was studied. The experiment was carried out utilizing (A) the P. aeruginosa strain PA14 and (B) mixed bacterial species derived from environmental and industrial water.
Bacteria were cultured in EPRI medium supplemented with Hutners mineral solution and glucose (0.2%). Microorganisms were incubated at room temperature (22° C.), under aerobic conditions with shaking. The biofilm culture system used included polystyrene 24-well plates that were treated with protein to enhance attachment and growth of biofilm bacteria according to the method described in Davies D G, Marques C N, 2009, J Bacteriol 191:1393-1403.
Following inoculation with 1 mL bacterial culture, spent medium was removed and replaced with sterile medium every 24 hours for 3 days, and a final medium exchange was performed 3 hours prior to treatment. Additionally, the medium was exchanged prior to treatment in order to remove planktonic bacteria. Treatments consisted of 100 μL of 310 nM CDA and bromine-containing biocide, or bromine-containing biocide alone at concentrations used in commercial water treatment, water was used as a carrier, for a contact time determined by activity of each biocide and ranging from 1 hour to 24 hours, as detailed below for each of the tested biocides.
Following the treatment, the medium from each well was removed by pipet and 1 mL of DE neutralization broth was added in order to stop the treatment. Bacteria from each well were then removed by scraping the biofilm formed in the well with a sterile cell-scraper, and 1.0 mL of culture was transferred to chilled (4° C.) 9.0 mL DE neutralizing broth and homogenized for 15 seconds at 40,000 rpm on ice. Further dilutions were performed prior to enumeration (further neutralizing biocide activity). Recovery of bacteria were tested at different dilutions of biocide in water, in LB medium with thioglycolate and in DE neutralizing broth to ensure the active agent was properly neutralized. Viable bacteria were enumerated via the drop plate method. Each biocide was evaluated using 24-well plates with 8 wells each for the control cultures (Ctl) inoculated with P. aeruginosa but not treated, a CDA minus test (−CDA) treated with bromine-containing biocide only, and a CDA plus test treated with bromine-containing biocide and CDA (+CDA).

The test system of data set [4] is mix of planktonic bacteria (E. Coli ATCC 11229, S. aureus ATCC 6538, Enterobacter aerogenes ATCC 130489, P. aeruginosa ATCC 13388). Briefly: Quantitative suspension test (modified EN 1040) on planktonic bacteria, sequential CDA then biocide. It is filed as cell-based. The settings on record: 2.5 ppm BCDMH 3 h, 310 nM CDA 1 h before; TOC=30 ppm, 30° C. The method, then:
310 nM CDA and bromine-containing biocide were introduced into a mix of planktonic bacteria in a medium containing different levels of organic loading (TOC 10-3000 ppm). High organic loading tends to reduce the efficacy of antimicrobial agents in industrial applications and, therefore, the test was aimed to mimic these conditions. The test was performed in accordance with the modified European standard EN 1040: 2005: “Chemical disinfectants and antiseptics—Quantitative suspension test for the evaluation of basic bactericidal activity of chemical disinfectants and antiseptics—Tests method and requirements (phase 1)”. 19 ml of phosphate buffer solution (pH=7) including tryptone in order to obtain a solution of TOC=30 ppm, and 1 ml of the tested bacteria suspension (consisted of E. Coli (ATCC 11229), S. aureus (ATCC 6538), Enterobacter aerogenes (ATCC 130489) and P. aeruginosa (ATCC 13388)), at a concentration of 1.5×10^8-5×10^8 CFU/ml, were placed into a container of suitable capacity. A stopwatch was started immediately and the container was placed in a water bath controlled at 30° C.
The activity was determined with 2.5 ppm BCDMH alone for a contact time of 3 hours. […] Countable plates were counted and the number of colony-forming units was determined, for each plate.

The nature of data set [5]: Storage stability of biocide/CDA liquid concentrates (HPLC). It is filed as physicochemical. The method, then:
22 mg of cis-2-decenoic acid (CiVentiChem, 96.72% purity) were charged into 50 ml flask, equipped with a stirrer 3.99 gr of C-103 (ICL, batch 640160147) were added, followed by 9.97 gr of PEG200 (Merck 8.07483.5000 Lot 56904983 451), 5.95 gr of DI water and 22 mg of BHT (Aldrich B1378-100G, BCBH9491V). The obtained solution was stirred till complete clarification; sonication at +30° C. is recommended if some particles are observed. Clear colorless solution of a total […] and 20:50:30:0.1:0.1 weight ratio of C103-PEG200-H2O-CDA-BHT was obtained.
The solution was tested to determine the stability of the biocide and CDA and under storage at 25° C. over a two-month period.
47.6 mg or cis-2-decenoic acid (CiVentiChem, 96.72% purity) were charged into 50 ml flask, equipped with a stirrer. 9.01 gr of Bronopol (ICL, batch 17101607) were added, followed by 18.03 gr of propylene glycol (Biolab 16200201 Lot 1007861), 3.0 gr of DI water and 31.2 mg of BHT (Aldrich B1378-100G, BCBH9491V). After stirring for several minutes, undissolved traces of BHT were filtered through filtering paper for BHT particle removal. Clear colorless solution of a total 30 gr and 30:60:10:0.158:0.1 weight ratio of Bronopol-PG-H2O-CDA-BHT was obtained.

A further data set has as its system P. aeruginosa biofilm. Kind of data set: Simultaneous application of CDA salt form and biocide on 3-day biofilm, CDC biofilm reactor, pH 8-9. It is filed as cell-based, Pseudomonas aeruginosa. The settings on record: 310 nM CDA, 1 h.
Data set [6] in a line: Stepwise acidification of CDA sodium/lithium salt (pKa). The data set is classed as physicochemical.

For `CC1(C)C(=O)N(Cl)C(=O)N1Br` [BCDMH, 1-bromo-3-chloro-5,5-dimethylhydantoin], the “enhancement by combined treatment relative to biocide alone” value is on record as 4.5 log units in data set [1] (10 ppm BCDMH, 31 nM commercial CDA (FIG. 13)); 4.5 log units in data set [1] (10 ppm BCDMH, 310 nM commercial CDA (FIG. 13)); 5.5 log units in data set [1] (10 ppm BCDMH, 3100 nM commercial CDA (FIG. 13)); around 2 log units in data set [1] (text of Example 2, biocide 10 ppm, 310 nM commercial CDA (97% by GC)); around 2 log units in data set [1] (text of Example 2, biocide 10 ppm, 310 nM crude CDA (90% by GC)); around 2.5 log units in data set [2] (biocide 5 ppm, 310 nM commercial CDA, mixed bacteria biofilm (FIG. 12A)). In addition, the “enhancement by combined treatment relative to biocide alone” value in data set [2] (biocide 10 ppm, 310 nM commercial CDA, mixed bacteria biofilm (FIG. 12B)) was around 5.5 log units. In addition, the “effect of 5.0 ppm biocide with 310 nM CDA relative to 10 ppm biocide without CDA” value in data set [1] (Example 3, sequential, FIG. 14) is listed as “comparable”. Also, the “reduction by biocide/CDA combination versus the solely applied biocide” value in data set [1] (Example 8, 5 ppm biocide/310 nM CDA, sequential (FIG. 17)) is recorded as 4.5 log units. Moreover, in data set [1], the “effect on biofilm of biocides applied alone, compared with each other” value was “comparable effect”. For the same molecule, the “Log reduction vs. control: biocide alone” value is around 3.5 log units in data set [1] (biocide 10 ppm, 1 h contact time, 3-day-old biofilm); around 2 log units in data set [2] (biocide 10 ppm, 1 h, biofilm formed by mixed bacteria); around 4 log units in data set [3] (2 hours contact time). Besides, the Enhancement in data set [1] (biocide 10 ppm, 310 nM CDA combination vs biocide alone) is reported as around 2.5 log units; in data set [2] (biocide 10 ppm, 310 nM CDA combination vs biocide alone, mixed bacteria biofilm) it was around 5.5 log units; in data set [3] (2 hours contact time) it was around 2 log units. Besides, the “Log reduction vs. control: combination of the 310 nM CDA and biocide” value in data set [1] (biocide 10 ppm, 1 h CDA 310 nM then 1 h biocide) was around 6 log units; in data set [2] (biocide 10 ppm, 1 h CDA 310 nM then 1 h biocide, mixed bacteria biofilm) it was around 7.5 log units. In addition, the “biofilm reduction by biocide alone” value is recorded as around 3 log units in data set [1] (text of Example 2, biocide 10 ppm, 1 h) and “reduces the biofilm” in data set [2] (biocide 5 ppm or 10 ppm, mixed bacteria biofilm). For the same molecule, the “log reduction of biocide and CDA compared with biocide alone” value in data set [3] (10 ppm BCDMH, 310 nM CDA, one hour (FIG. 4)) came to 2. Moreover, the “Log reduction vs. control: combination of the 310 nm CDA and biocide” value in data set [3] (2 hours contact time) is listed as around 6 log units. In addition, the “enhancement by CDA and biocide in sequence compared with biocide without CDA” value in data set [4] was determined as 2 log units.
On to `O=[N+]([O-])C(Br)(CO)CO` [Bronopol, 2-bromo-2-nitro-1,3-propanediol], for which the “reduction of number of bacteria by addition of CDA to the biocide treatment” value in data set [3] (10 ppm bronopol, 310 nM CDA, two hours of treatment (FIG. 2A)) was “more than an order of magnitude”. For the same molecule, in data set [3] (24 hours contact time), the “Log reduction vs. control: biocide alone” value was around 6 log units; the Enhancement is around 3 log units; the “Log reduction vs. control: combination of the 310 nm CDA and biocide” value is “effective in eradicating P. aeruginosa biofilm; also recorded: biofilm eradication”. In addition, in data set [3] (24 hours contact time, listed as bronopol), the “Log reduction vs. control: biocide alone” value is on record as “very effective in reducing biofilm”. Moreover, the “degradation under storage (HPLC)” value in data set [5] is “Neither bronopol nor CDA underwent degradation”.
The pKa is the negative logarithm of the acid dissociation constant. In the case of `CCCCCCC/C=C\C(=O)O` [CDA, cis-2-decenoic acid], the “effect of CDA alone on biofilm compared to the control” value in data set [1] was “no useful effect”; in data set [1] (310 nM CDA, commercial (97%) or crude (90%), 1 h), “no useful effect”; in data set [2] (310 nM commercial CDA, mixed bacteria biofilm) it was “no useful effect”; with P. aeruginosa biofilm, “no useful effect”. Besides, the “biocidal action of CDA alone (reduction of bacterial counts)” value in data set [1] (CDA on its own, broad concentration range, even >3000 nM) is “failed to demonstrate biocidal action”. The “degradation under storage (HPLC)” value in data set [5] (Example 6 concentrate C103-PEG200-H2O-CDA-BHT 20:50:30:0.1:0.1, 25° C., two months) was “Neither DBNPA nor CDA underwent degradation”; in data set [5] (Example 7 concentrate Bronopol-PG-H2O-CDA-BHT 30:60:10:0.158:0.1, 25° C., two months) it was “Neither bronopol nor CDA underwent degradation”. For the same molecule, the pKa in data set [6] was 6.5 to 7.5.
Take `OCl` [sodium hypochlorite, Sodium hypochlorite, reference compound]: in data set [1], the “reduction by biocide/CDA combination versus the solely applied biocide” value stood at 2 log units and the “effect on biofilm of biocides applied alone, compared with each other” value was “comparable effect”.
